Laboratory results reported in US20180021277A1, “ANTI-VIRULENCE COMPOSITIONS AND METHODS” (priority 2012, published 2018).
In brackets after ≈: the same amount, converted by molar mass.

Experiments:
MRSA USA300 [1] = format: in vivo, mice; conditions: for improvement of wound healing compared to untreated control: 20 mg/kg on the wound once a day for seven days, wound area day 8; for bacterial burden of the wound vs untreated control: 20 mg/kg once a day for seven days; for bacterial burden of the wound vs untreated control / tissue burden of the wound, average log CFUs ± standard deviation: day 8; for tissue burden of the wound, average log CFUs ± standard deviation: topical twice a day for seven days, cephalothin 30 mg/kg, F19 20 mg/kg, vancomycin 30 mg/kg
AgrA-P3 complex = AgrA-P3 complex (Staphylococcus aureus, UniProt P0A0I7); assay: Electrophoretic mobility shift assay, AgrA with P3 promoter DNA; conditions: 1 nM P3 DNA, 2 μM AgrA
AgrA-P3 complex, sequence (P0A0I7 whole entry, one chain of several): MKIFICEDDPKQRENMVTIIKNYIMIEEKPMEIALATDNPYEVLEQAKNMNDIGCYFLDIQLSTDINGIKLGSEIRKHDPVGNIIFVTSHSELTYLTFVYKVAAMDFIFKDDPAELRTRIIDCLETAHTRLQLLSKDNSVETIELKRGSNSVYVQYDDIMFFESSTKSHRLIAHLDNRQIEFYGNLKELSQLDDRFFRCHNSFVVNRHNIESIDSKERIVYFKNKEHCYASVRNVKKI

[2] = Survival of insect larvae given compound in the absence of bacteria; format: in vivo, Galleria Mellonella; conditions: after 84 h
[3] = test system: Bacillus anthracis Ames strain; format: cell-based
MRSA USA300 [4] = assay: microbe, parasite or virus in culture; format: cell-based, Staphylococcus aureus; conditions: for MIC: Staphylococcus aureus, read-out: minimum inhibitory concentration (MIC), With F19 (1 μg/mL)
MRSE Q-15 = format: cell-based, Staphylococcus epidermidis
MRSA USA300 [5] = assay: Murine MRSA bacteremia/sepsis model
Streptococcus pyogenes = format: cell-based

CCCCCCc1cc(C(=O)COc2cccc(F)c2)c(O)cc1O [4f-1]
improvement of wound healing compared to untreated control (MRSA USA300 [1]): 46.6%
bacterial burden of the wound vs untreated control (MRSA USA300 [1]): no significant difference in the bacterial burden
inhibition of formation of the AgrA-promoter P3 complex (EMSA) (AgrA-P3 complex; listed as F1): inhibit the formation of the AgrA-promoter P3 complex

CCCCCCc1cc(C(=O)COc2ccc(F)cc2F)c(O)cc1O [4f-12]
survival of larvae in the absence of bacteria [2]: 80%
improvement of wound healing compared to untreated control (MRSA USA300 [1]): 79.4%
bacterial burden of the wound vs untreated control (MRSA USA300 [1]): no significant difference in the bacterial burden
inhibition of formation of the AgrA-promoter P3 complex (EMSA) (AgrA-P3 complex): inhibit binding of AgrA to its cognate DNA
inhibition of formation of the AgrA-promoter P3 complex (EMSA) (AgrA-P3 complex; listed as F12): inhibit the formation of the AgrA-promoter P3 complex

C[C@H]1[C@H](NC(=O)/C(=N\OC(C)(C)C(=O)O)c2csc(N)n2)C(=O)N1S(=O)(=O)O [Aztreonam]
minimum inhibitory concentration (MIC), antibiotic Alone [3]: 256
minimum inhibitory concentration (MIC), With F19 (10 μg/mL) [3]: <0.1

CC(C)(O/N=C(\C(=O)N[C@@H]1C(=O)N2C(C(=O)[O-])=C(C[n+]3ccccc3)CS[C@H]12)c1csc(N)n1)C(=O)O [Cefazidime]
minimum inhibitory concentration (MIC), antibiotic Alone [3]: 32
minimum inhibitory concentration (MIC), With F19 (10 μg/mL) [3]: <0.1

CC(=O)OCC1=C(C(=O)O)N2C(=O)[C@@H](NC(=O)Cc3cccs3)[C@H]2SC1 [Cephalothin, cephalothin]
minimum inhibitory concentration (MIC), antibiotic Alone (MRSA USA300 [4]; MRSA USA300): 58 µg/mL (≈ 146 µM)
MIC (MRSA USA300 [4]): 2 µg/mL (≈ 5.04 µM)
minimum inhibitory concentration (MIC), antibiotic Alone (MRSE Q-15): 64
minimum inhibitory concentration (MIC), With F19 (1 μg/mL) (MRSE Q-15): 3
bacterial burden in blood compared to F19-treated animals (MRSA USA300 [5]; 30 mg/kg IP twice daily): approximately the same bacterial burden levels
tissue burden of the wound, average log CFUs ± standard deviation (MRSA USA300 [1]): 7.54±0.4 log CFU

CCOc1ccc2ccccc2c1C(=O)N[C@@H]1C(=O)N2[C@@H]1SC(C)(C)[C@@H]2C(=O)O [Nafcillin]
minimum inhibitory concentration (MIC), antibiotic Alone (MRSA USA300 [4]; MRSA USA300): 60 µg/mL (≈ 145 µM)
MIC (MRSA USA300 [4]): 1 µg/mL (≈ 2.41 µM)
minimum inhibitory concentration (MIC), antibiotic Alone (Streptococcus pyogenes; alone): 25
minimum inhibitory concentration (MIC), With F19 (1 μg/mL) (Streptococcus pyogenes; with F19 1 μg/mL): 10

CN[C@H](CC(C)C)C(=O)N[C@H]1C(=O)N[C@@H](CC(N)=O)C(=O)N[C@H]2C(=O)N[C@H]3C(=O)N[C@H](C(=O)N[C@H](C(=O)O)c4cc(O)cc(O)c4-c4cc3ccc4O)[C@H](O)c3ccc(c(Cl)c3)Oc3cc2cc(c3O[C@@H]2O[C@H](CO)[C@@H](O)[C@H](O)[C@H]2O[C@H]2C[C@](C)(N)[C@H](O)[C@H](C)O2)Oc2ccc(cc2Cl)[C@H]1O [Vancomycin, vancomycin]
bacterial load in blood compared to the F19-cephalothin treatment (MRSA USA300 [5]; 30 mg/kg IP twice daily): almost two orders of magnitude lower
surviving mice (of ten per group) (MRSA USA300 [5]; 30 mg/kg IP twice daily for 7 days, lethal dose 1.6×10^10 CFUs): all survived
mean bacterial load in blood compared to vehicle-treated animals (MRSA USA300 [5]; 30 mg/kg IP twice daily, day 6): four orders of magnitude lower
tissue burden of the wound, average log CFUs ± standard deviation (MRSA USA300 [1]): 6.96±0.3 log CFU

Penicillin
minimum inhibitory concentration (MIC), antibiotic Alone (MRSA USA300 [4]; MRSA USA300): 135 µg/mL
minimum inhibitory concentration (MIC), With F19 (1 μg/mL) (MRSA USA300 [4]; MRSA USA300, with F19 1 μg/mL): 18 µg/mL
minimum inhibitory concentration (MIC), antibiotic Alone (MRSE Q-15): 174
minimum inhibitory concentration (MIC), With F19 (1 μg/mL) (MRSE Q-15): 34
